From patent US12037333B2, “Pyridopyrazine and pyridotriazine inhibitors of influenza virus replication” (priority 2018, dated 2024) come the findings set out here.

The structures appear in SMILES notation.

This assay relates to Influenza type B (cell culture adapted strain B/Lee/40, ATCC VR-1535). As to the kind of experiment: Influenza antiviral assay: inhibition of virus-induced cytopathic effects (CPE) in MDCK cells, XTT dye reduction. Format: cell-based. The settings on record: Influenza B virus, MDCK, 96 h, strain B/Lee/40, MDCK cells, CPE inhibition at 4 days.
Regarding `CC1N(C)C(=O)c2c(O)c(=O)ccn2N1C12c3ccccc3CC1Cc1c(Cl)cccc12` (centres unmarked) [Compound A94], the 50% effective concentration (EC50) lay in the range of 250 to 375 nM.

In turn, `CC1N(C)C(=O)c2c(O)c(=O)ccn2N1C12c3ccccc3CC1Cc1c2ccc(F)c1F` (centres unmarked) [Compound A64] returned a concentration giving a half-maximal response (EC50) of less than 125 nM.

Turning to `O=C1c2c(O)c(=O)ccn2N(C23c4cccc(F)c4CC2Cc2c(F)cccc23)CN1CC1CCOCC1` (centres unmarked) [Compound A81], the half-maximal effective concentration (EC50) was 125 to 250 nM.

`CN1C(=O)c2c(O)c(=O)ccn2N(C23c4cccc(F)c4CC2Cc2c(F)cccc23)C1CN` (centres unmarked) [Compound A107, 2-(aminomethyl)-1-(1,8-difluoro-9a,10-dihydroindeno[1,2-a]inden-4b(9H)-yl)-5-hydroxy-3-methyl-2,3-dihydro-1H-pyrido[2,1-f][1,2,4]triazine-4,6-dione]: the 50% effective concentration (EC50) was in the range of 125 to 250 nM.

`CN1CN(C23c4ccccc4CC2Cc2c3ccc(Cl)c2Cl)n2ccc(=O)c(O)c2C1=O` (centres unmarked) [Compound A146]: the half-maximal effective concentration (EC50) was in the range of 125 to 250 nM.

`O=C1c2c(O)c(=O)ccn2N(C23c4ccccc4CC2Cc2ccccc23)CN1Cc1cccc(Cl)c1F` (centres unmarked) [Compound A31, 3-(3-chloro-2-fluorobenzyl)-1-(9a,10-dihydroindeno[1,2-a]inden-4b(9H)-yl)-5-hydroxy-2,3-dihydro-1H-pyrido[2,1-f][1,2,4]triazine-4,6-dione] gave an EC50 of 375 to 500 nM.

Turning to `CN1CN(C23c4ccccc4CC2(C)Cc2c3ccc(F)c2F)n2ccc(=O)c(O)c2C1=O` (centres unmarked) [Compound A165], the EC50 is less than 125 nM.

The molecule `Cc1c(F)ccc2c1CC1Cc3ccccc3C21N1CN(C)C(=O)c2c(O)c(=O)ccn21` (centres unmarked) [Compound A78] showed a concentration giving a half-maximal response (EC50) of less than 125 nM.

Molecule `CN1CN(C23C(=Cc4ccccc42)Cc2ccccc23)n2ccc(=O)c(O)c2C1=O` (centres unmarked) [Compound A30, 5-hydroxy-1-(indeno[1,2-a]inden-4b(9H)-yl)-3-methyl-2,3-dihydro-1H-pyrido[2,1-f][1,2,4]triazine-4,6-dione] yielded an EC50 of 375 to 500 nM.

As to `O=C1c2c(O)c(=O)ccn2N(C23c4ccccc4CC2Cc2c3ccc(F)c2F)CN1CCc1cccc(F)c1` (centres unmarked) [Compound A27, 1-(1,2-difluoro-9a,10-dihydroindeno[1,2-a]inden-4b(9H)-yl)-3-(3-fluorophenethyl)-5-hydroxy-2,3-dihydro-1H-pyrido[2,1-f][1,2,4]triazine-4,6-dione], the concentration giving a half-maximal response (EC50) fell in the range of 250 to 375 nM.

On to `O=C1c2c(O)c(=O)ccn2N(C23c4ccccc4CC2Cc2c(Cl)cccc23)CN1CC(F)F` (centres unmarked) [Compound A105], for which the EC50 was less than 125 nM.

In the case of `O=C1c2c(O)c(=O)ccn2N(C23c4ccccc4CC2Cc2c(F)cccc23)CN1CC1CCOCC1` (centres unmarked) [Compound A75], the EC50 was less than 125 nM.

Molecule `CN1CN(C23c4ccccc4CC2(C)Cc2ccccc23)n2ccc(=O)c(O)c2C1=O` (centres unmarked) [Compound A150] gave an EC50 of less than 125 nM.

On to `O=C1c2c(O)c(=O)ccn2N(C23c4ccccc4CC2Cc2c(F)cccc23)CN1C1CC1` (centres unmarked) [Compound A65], for which the half-maximal effective concentration (EC50) was less than 125 nM.

The molecule `COCCN1CN(C23c4ccccc4CC2Cc2ccccc23)n2ccc(=O)c(O)c2C1=O` (centres unmarked) [Compound A110] gave a half-maximal effective concentration (EC50) of less than 125 nM.

Molecule `CC(C)CN1C(=O)c2c(O)c(=O)ccn2N(C23c4ccccc4CC2Cc2c(F)cccc23)C1C` (centres unmarked) [Compound A117] came in with a concentration for a half-maximal effect (EC50) of 250 to 375 nM.

`CCN1CN(C23c4cccc(F)c4CC2Cc2c(Cl)cccc23)n2ccc(=O)c(O)c2C1=O` (centres unmarked) [Compound A151] displayed a concentration giving a half-maximal response (EC50) of 125 to 250 nM.

In turn, `O=C1c2c(O)c(=O)ccn2N(C23c4ccccc4CC2Cc2c3ccc(F)c2F)CN1CC(F)F` (centres unmarked) [Compound A84] showed an EC50 of 125 to 250 nM.

`O=C1c2c(O)c(=O)ccn2N(C23c4ccccc4CC2Cc2ccccc23)CN1CC1CC1` (centres unmarked) [Compound A2, 3-Cyclopropylmethyl-1-(9a,10-dihydro-9H-indeno[1,2-a]inden-4b-yl)-5-hydroxy-2,3-dihydro-1H-pyrido[2,1-f][1,2,4]triazine-4,6-dione] displayed an EC50 of more than 500 nM.

`CCN1CN(C23c4ccccc4CC2(CC)Cc2ccccc23)n2ccc(=O)c(O)c2C1=O` (centres unmarked) [Compound A157] yielded a half-maximal effective concentration (EC50) of 125 to 250 nM.

Molecule `O=C1c2c(O)c(=O)ccn2N(C23c4ccccc4CC2Cc2c3ccc(F)c2F)CN1Cc1ccccc1` (centres unmarked) [Compound A11, 3-Benzyl-1-(1,2-difluoro-9a,10-dihydro-9H-indeno[1,2-a]inden-4b-yl)-5-hydroxy-2,3-dihydro-1H-pyrido[2,1-t][1,2,4]triazine-4,6-dione] showed a 50% effective concentration (EC50) of 375 to 500 nM.

Take `CCN1CN(C23c4cccc(F)c4CC2(C)Cc2c(F)cccc23)n2ccc(=O)c(O)c2C1=O` (centres unmarked) [Compound A51]: the EC50 was less than 125 nM.

The molecule `CCN1CN(C23c4ccccc4CC2(OC)Cc2ccccc23)n2ccc(=O)c(O)c2C1=O` (centres unmarked) [Compound A152] gave a half-maximal effective concentration (EC50) of 125 to 250 nM.

As for `O=C1c2c(O)c(=O)ccn2N(C23c4ccccc4CC2Cc2cc(F)c(F)cc23)CN1CCc1ccccc1` (centres unmarked) [Compound A22, 1-(2,3-difluoro-9a,10-dihydroindeno[1,2-a]inden-4b(9H)-yl)-5-hydroxy-3-phenethyl-2,3-dihydro-1H-pyrido[2,1-f][1,2,4]triazine-4,6-dione], the concentration for a half-maximal effect (EC50) is less than 125 nM.

The molecule `CN1CN(C23c4ccccc4CC2Cc2cccc(F)c23)n2ccc(=O)c(O)c2C1=O` (centres unmarked) [Compound A145] returned a concentration giving a half-maximal response (EC50) of less than 125 nM.

Regarding `CCN1C(=O)c2c(O)c(=O)ccn2N(C23c4ccccc4CC2Cc2c(Cl)cccc23)C1C` (centres unmarked) [Compound A95], the EC50 is less than 125 nM.

Turning to `O=C1c2c(O)c(=O)ccn2N(C23c4ccccc4CC2Cc2c(F)cccc23)CN1CCCF` (centres unmarked) [Compound A79], the EC50 was less than 125 nM.

With `CN1CN(C23c4cc(F)c(F)cc4CC2Cc2cc(F)c(F)cc23)n2ccc(=O)c(O)c2C1=O` (centres unmarked) [Compound A8, 5-Hydroxy-3-methyl-1-(2,3,6,7-tetrafluoro-9a,10-dihydro-9H-indeno[1,2-a]inden-4b-yl)-2,3-dihydro-1H-pyrido[2,1-f][1,2,4]triazine-4,6-dione], the 50% effective concentration (EC50) is more than 500 nM.

In turn, `CCN1CN(C23c4ccccc4CC2Cc2cc(F)c(F)cc23)n2ccc(=O)c(O)c2C1=O` (centres unmarked) [Compound A10, 1-(2,3-Difluoro-9a,10-dihydro-9H-indeno[1,2-a]inden-4b-yl)-3-ethyl-5-hydroxy-2,3-dihydro-1H-pyrido[2,1-f][1,2,4]triazine-4,6-dione] displayed an EC50 of more than 500 nM.

With `O=C1c2c(O)c(=O)ccn2N(C23c4ccccc4CC2Cc2c3ccc(F)c2F)CN1CC1CCCCO1` (centres unmarked) [Compound A131], the concentration for a half-maximal effect (EC50) is 125 to 250 nM.

`O=C1c2c(O)c(=O)ccn2N(C23c4ccccc4CC2Cc2c(Cl)cccc23)CN1CC1CC1` (centres unmarked) [Compound A108] yielded an EC50 of 250 to 375 nM.

Consider `O=C1c2c(O)c(=O)ccn2N(C23c4cccc(F)c4CC2Cc2c(F)cccc23)CN1CC1CC1` (centres unmarked) [Compound A76], for which the 50% effective concentration (EC50) was less than 125 nM.

In the case of `O=C1c2c(O)c(=O)ccn2N(C23c4ccccc4CC2Cc2cc(F)c(F)cc23)CN1CC1CC1` (centres unmarked) [Compound A13, 3-Cyclopropylmethyl-1-(2,3-difluoro-9a,10-dihydro-9H-indeno[1,2-a]inden-4b-yl)-5-hydroxy-2,3-dihydro-1H-pyrido[2,1-f][1,2,4]triazine-4,6-dione], the EC50 is less than 125 nM.

Regarding `O=C1c2c(O)c(=O)ccn2N(C23c4ccccc4CC2Cc2c(Cl)cccc23)CN1CC1CCCC1` (centres unmarked) [Compound A104], the EC50 fell in the range of 125 to 250 nM.

Molecule `O=C1c2c(O)c(=O)ccn2N(C23c4ccccc4CC2Cc2cc(F)c(F)cc23)CN1Cc1cccc(F)c1` (centres unmarked) [Compound A24, 1-(2,3-difluoro-9a,10-dihydroindeno[1,2-a]inden-4b(9H)-yl)-3-(3-fluorobenzyl)-5-hydroxy-2,3-dihydro-1H-pyrido[2,1-f][1,2,4]triazine-4,6-dione] gave an EC50 of 375 to 500 nM.
